Patent US11751567B2, “Steroidal piperidone derivative, synthesis method, and use thereof” (NORTHWEST A&F UNIVERSITY, priority 2021, dated 2023)
≈ marks a conversion by molar mass, not a printed value.

How the values were obtained:
Assay type in all cases: in vivo
Myzus persicae = assay: slide-dip mortality test on aphids (Myzus persicae); settings: 24 h, read-out: Corrected mortality (%) Myzus persicae
Method: (§1) Inhibitory activities of the steroidal piperidone derivatives listed in Tables 1 and 2 against Myzus persicae, Aphis citricola, Brevicoryne brassicae, and wheat aphids were determined through slide-dip method. Specific process: A specified amount of a compound to be tested was accurately weighed and dissolved with acetone as a solvent, and solutions with concentrations of 50 μg/mL and 75 μg/mL were each prepared with a 0.1% Tween-80 aqueous solution, allowed to stand at room temperature for 0.5 h until the sample was completely dissolved, and stored for later use. Then, adult aphids were fixed with double-sided tape on slides with a small brush. One end of the slide with the aphids was immersed in the test solutions for 5 seconds. The excess liquid was absorbed with absorbent paper, and the mortality rates were calculated 24 h after treatment. Acetamiprid was adopted as a positive control, and a 0.1% Tween-80 aqueous solution was adopted as a negative control. and the results are shown in Table 1.

Tetranychus truncatus = assay: slide dipping mortality test on mites; settings: slide dipping, process as for aphids, read-out: Corrected mortality (%) Tetranychus truncatus
Method: as §1
The inhibitory activities of the steroidal piperidone derivatives listed in Table 3 on Tetranychus truncatus were tested through slide dipping.

Bemisia tabaci = assay: foliar spray test on cucumber leaf against B. tabaci; settings: 168 h, read-out: Corrected mortality (%) B. tabaci
Method: (§2) The toxic activities of the steroidal piperidone derivatives listed in Table 4 against B. tabaci were tested by a foliar spray method. Specific process: A specified amount of a compound to be tested was accurately weighed and dissolved in acetone, and solutions with concentrations of 50 μg/mL and 75 μg/mL were each prepared with a 0.1% of Tween 80 aqueous solution and stored for later use. The pesticide solution was sprayed on the back side of a cucumber leaf, the cucumber leaf was naturally dried, and B. tabaci to be tested were placed on the cucumber leaf. Thiamethoxam was used as a positive control, and acetone was used as a negative control. Several deaths were observed after 7 d of treatment, and the corrected mortality was calculated.

Aphis citricola = assay: slide-dip mortality and LC50 test on aphids (Aphis citricola)
Method: as §1

wheat aphids = assay: slide-dip mortality test on aphids (wheat aphids); settings: 24 h, read-out: Corrected mortality (%) Wheat aphid
Method: as §1

Brevicoryne brassicae = assay: slide-dip mortality test on aphids (Brevicoryne brassicae); settings: 24 h, read-out: Corrected mortality (%) Brevicoryne brassicae
Method: as §1

rice planthoppers = assay: foliar spray test against rice planthoppers; settings: 72 h, read-out: Corrected mortality (%) rice planthoppers
Method: as §2
The toxic activities of the steroidal piperidone derivatives listed in Table 5 against rice planthoppers were tested by a foliar spray method. Imidacloprid was used as a positive control, and acetone was used as a negative control. Several deaths were observed after 3 d of treatment, and the corrected mortality was calculated.

[1] = 24 h, read-out: Corrected mortality (%) Aphis citricola

Cc1ccccc1C(=O)N1C(=O)CC[C@H]2[C@@H]3CC=C4C[C@@H](O)CC[C@]4(C)[C@H]3CC[C@@]21C [Compound (2)-7]
mortality at 50 µg/mL (Myzus persicae): 93.2% | mortality at 75 µg/mL (Myzus persicae): 100% | mortality at 50 µg/mL (Tetranychus truncatus; 50 μg/mL): 66.8% | mortality at 75 µg/mL (Tetranychus truncatus; 75 μg/mL): 88.5% | mortality at 50 µg/mL (Bemisia tabaci): 76.3% | mortality at 75 µg/mL (Bemisia tabaci): 88.5% | mortality at 50 µg/mL (Aphis citricola; [1]): 92.1% | mortality at 75 µg/mL (Aphis citricola; [1]): 100% | LC50 (Aphis citricola; read-out: LC50 of inhibitory activity against Aphis citricola): 10.3 µg/mL (≈ 24.4 µM) | mortality at 50 µg/mL (wheat aphids): 96% | mortality at 75 µg/mL (wheat aphids): 100% | mortality at 50 µg/mL (Brevicoryne brassicae): 94.4% | mortality at 75 µg/mL (Brevicoryne brassicae): 100% | mortality at 50 µg/mL (rice planthoppers): 64.2% | mortality at 75 µg/mL (rice planthoppers): 79.2%
